Measured values: patent US20260234144A1 (TAY THERAPEUTICS LIMITED, priority 2023, published 2026)

Test system: R223X stop codon in the mutated luciferase gene, ADXC8 luciferase reporter cell line
Assay: cells
Assay type: cell-based
Conditions: ADXC8 cells, 24 hours; for EC (100% of 200 uM G418 response) / Emax: 24 h; for EC (100% of 200 uM G418 response): read-out: pC100%, negative logarithm of the concentration giving the same response as 200 μM G418; for Emax: read-out: Fold Over Control, maximum fold response relative to 200 μM G418; for pC100%: negative logarithm of the concentration giving the same response as 200 μM G418

| SMILES | EC (100% of 200 uM G418 response) | Emax | Fold Over Control (maximum fold response relative to 200 μM G418) | pC100% |
| --- | --- | --- | --- | --- |
| CN1CCC(Nc2nc(N)c3ccc(-c4ccccc4CO)nc3n2)CC1 [Example 89] | 10 to 100 µM | – | – | – |
| Cc1ccc(CN2CCC(Nc3nc(N)c4c(C)cc(C)nc4n3)CC2)c(O)c1 [Example 540] | 1 to 10 µM | 100 to 3000% | – | – |
| Cc1c2ccccc2nc2nc(NC3CCN(C)CC3)nc(N)c12 [Example 10, 5-methyl-N^2-(1-methylpiperidin-4-yl)pyrimido[4,5-b]quinoline-2,4-diamine] | 1 to 10 µM | 100 to 3000% | – | – |
| CNc1nc(N[C@H]2CNC[C@H]2O)nc2nc(C)c3c(c12)CCC3 [Example 345] | 10 to 100 µM | 100 to 3000% | – | – |
| Cc1cc(C)c2c(N)nc(NC3CCN(Cc4cscn4)CC3)nc2n1 [Example 461] | 1 to 10 µM | 100 to 3000% | – | – |
| CNc1nc(NC2CNCC2(F)F)nc2nc(C)cc(C)c12 (single isomer, unassigned) [Example 438] | – | – | # (Fold over Ctrl ≥ 0 ≤ 1) | * (pC100 ≤ 4.5) |
| Cc1nc2nc(NC34CCN(CC3)CC4)nc(N)c2c2c1CCC2 [Example 272] | 0.1 to 1 µM | 100 to 3000% | – | – |
| CNc1nc(N[C@H]2CNC[C@H]2F)nc2nc(C)c3c(c12)CCC3 [Example 347] | 0.1 to 1 µM | – | – | – |
| C=C(C)c1cnc2nc(NC3CCN(C)CC3)nc(N)c2c1 [Example 397] | 1 to 10 µM | 100 to 3000% | – | – |
| CNc1nc(NCCCN2CCOCC2)nc2nc3c(c(C)c12)CCC3 [Example 296] | 0.1 to 1 µM | – | – | – |
| Cc1cc(C)c2c(N)nc(NC3C[C@H]4CC[C@@H](C3)N4)nc2n1 (some centres unmarked) [Example 177] | 0.1 to 1 µM | 100 to 3000% | – | – |
| CN1CCC(Nc2nc(N)c3ccc(-c4ccnnc4)nc3n2)CC1 [Example 61] | > 100 µM | 0 to 100% | – | – |
| Cc1cc(C2CCC2)nc2nc(NC3CCN(C)CC3)nc(N)c12 [Example 521, 7-cyclobutyl-5-methyl-N^2-(1-methylpiperidin-4-yl)pyrido[2,3-d]pyrimidine-2,4-diamine] | 1 to 10 µM | – | – | – |
| CNc1nc(N[C@H]2CN(C)C[C@H]2F)nc2nc(C)c(Cl)c(C)c12 [Example 614] | 1 to 10 µM | – | – | – |
| CNc1cc(NC2CCN(C)CC2)nc2nc(C)cc(C)c12 [Example 261, N^4,5,7-trimethyl-N^2-(1-methylpiperidin-4-yl)-1,8-naphthyridine-2,4-diamine] | 1 to 10 µM | 100 to 3000% | – | – |
| Cc1cc(C2CC2)nc2nc(NC3CCN(C)CC3)nc(N)c12 [Example 601] | 1 to 10 µM | – | – | – |
| [2H]C([2H])([2H])N1CCC(Nc2nc(N)c3c(C)cc(C)nc3n2)CC1 [Example 584] | 1 to 10 µM | – | – | – |
| Cc1cccc(-c2ccc3c(N)nc(NC4CCN(C)CC4)nc3n2)c1 [Example 49, N^2-(1-methylpiperidin-4-yl)-7-(m-tolyl)pyrido[2,3-d]pyrimidine-2,4-diamine] | 1 to 10 µM | – | – | – |
| CNc1nc(NC2C3CNC2C3)nc2nc(C)cc(C)c12 (single isomer, unassigned) [Example 446] | – | – | – | ++ (pC100% > 5.0 ≤ 6.0) |
| CN1CCC(Nc2nc(N)c3ccc(-c4cccc(C#N)c4)nc3n2)CC1 [Example 112] | 1 to 10 µM | – | – | – |
| CNc1nc(N[C@H]2CNC[C@@H]2C)nc2nc(C)cc(C)c12 [Example 382] | 1 to 10 µM | 100 to 3000% | – | – |
| C#Cc1ccnc2nc(NC3CCN(C)CC3)nc(N)c12 [Example 249, 5-ethynyl-N^2-(1-methylpiperidin-4-yl)pyrido[2,3-d]pyrimidine-2,4-diamine] | 10 to 100 µM | 100 to 3000% | – | – |
| Cc1cc(C)c2c(N)nc(N[C@H]3CCNCC3(F)F)nc2n1 [Example 220] | 1 to 10 µM | 100 to 3000% | – | – |

| SMILES | EC (100% of 200 uM G418 response) | Emax | Fold Over Control (maximum fold response relative to 200 μM G418) | pC100% |
| --- | --- | --- | --- | --- |
| Cc1cc(C)c2c(NCCO)nc(NC3CCN(C)CC3)nc2n1 [Example 273] | 1 to 10 µM | – | – | – |
| CNc1nc(N[C@@H]2CN(C)C[C@@H]2C)nc2nc(C)cc(C)c12 [Example 377] | 1 to 10 µM | 100 to 3000% | – | – |
| Cc1cc(C)c2c(NCCC(=O)N(C)C)nc(NC3CCN(C)CC3)nc2n1 [Example 354] | > 31.6 µM | 0 to 100% | – | – |
| CNc1nc(N[C@H]2CN[C@H](CO)C2)nc2nc(C)cc(C)c12 [Example 415] | 1 to 10 µM | – | – | – |
| Cc1cc(C)c2c(N)nc(NC3CCN(Cc4ccccc4C)CC3)nc2n1 [Example 550] | 1 to 10 µM | 100 to 3000% | – | – |
| Cc1cc(C)c2c(NCCN3CCOCC3)nc(NC3CCN(C)CC3)nc2n1 [Example 357] | 1 to 10 µM | 100 to 3000% | – | – |
| CNc1nc(N[C@@H]2CCN(C)C2)nc2nc(N(C)C)cc(C)c12 [Example 630] | 10 to 100 µM | 100 to 3000% | – | – |
| CNc1nc(N[C@H]2CN(C)CC[C@H]2OC)nc2nc(C)cc(C)c12 [Example 591] | 0.1 to 1 µM | 100 to 3000% | – | – |
| Cc1cc(C)c2c(N)nc(NC3CCN(Cc4cnco4)CC3)nc2n1 [Example 474] | 10 to 100 µM | 100 to 3000% | – | – |
| Cc1cc(C)c2c(N)nc(NC3CC4(C3)CN(C(=O)OC(C)(C)C)C4)nc2n1 [Example 134] | > 100 µM | 0 to 100% | – | – |
| CNc1nc(N[C@H]2CN(C)C[C@H]2F)nc2nc(C)c3c(c12)CCC3 [Example 366] | 0.1 to 1 µM | 100 to 3000% | – | – |
| Cc1nc2nc(NC3CCN(C)CC3)nc(N)c2c(C)c1Cl [Example 130, 6-chloro-5,7-dimethyl-N^2-(1-methylpiperidin-4-yl)pyrido[2,3-d]pyrimidine-2,4-diamine] | 1 to 10 µM | 100 to 3000% | – | – |
| Cc1cc(C)c2c(N)nc(NCCN3CC(C)OC(C)C3)nc2n1 (centres unmarked) [Example 151] | > 31.6 µM | 0 to 100% | – | – |
| COc1ccnc2nc(NC3CCN(C)CC3)nc(N)c12 [Example 281] | 10 to 100 µM | 100 to 3000% | – | – |
| CNc1nc(N[C@H]2CN(C)C[C@H]2F)nc2nc(C)cc(C)c12 [Example 340] | 1 to 10 µM | 100 to 3000% | – | – |
| CN1CCC(Nc2nc(N)c3cc(C(F)(F)F)cnc3n2)CC1 [Example 19, N^2-(1-methylpiperidin-4-yl)-6-(trifluoromethyl)pyrido[2,3-d]pyrimidine-2,4-diamine] | > 100 µM | 0 to 100% | – | – |
| Cc1cc(C)c2c(N)nc(NCCCN(C)c3ccccc3)nc2n1 [Example 147] | > 31.6 µM | 0 to 100% | – | – |
| CNc1nc(N[C@H]2CN(C)C[C@@H]2C)nc2nc(C)cc(C)c12 [Example 381] | 1 to 10 µM | 100 to 3000% | – | – |
| Cc1cc(C)c2c(N)nc(NCC3CN(C)CCO3)nc2n1 (centres unmarked) [Example 152] | 10 to 100 µM | 100 to 3000% | – | – |
| Cc1cc(C)c2c(N)nc(NCCCN3CCS(=O)(=O)CC3)nc2n1 [Example 8, 4-(3-((4-amino-5,7-dimethylpyrido[2,3-d]pyrimidin-2-yl)amino)propyl)thiomorpholine 1,1-dioxide] | > 100 µM | 0 to 100% | – | – |
| CSc1cccc(-c2ccc3c(N)nc(NC4CCN(C)CC4)nc3n2)c1 [Example 99] | 0.1 to 1 µM | – | – | – |
| Cc1cc(C)c2c(N)nc(NC3CCN(Cc4cccc(O)c4)CC3)nc2n1 [Example 506] | 1 to 10 µM | 100 to 3000% | – | – |
